Laboratory results from US20180237745A1, “METHOD FOR CONTROLLING DIFFERENTIATION OF STEM CELLS” (GUANGZHOU INSTITUTES OF BIOMEDICINE AND HEALTH, CHINESE …, priority 2015, published 2018).

Key:
human H1 ES cells [1] = system: human H1 ES cells
Description: Undifferentiated human H1 ES cells were maintained in monolayer culture on Matrigel (BD Biosciences, 354277) in mTeSR1 medium (Stemcell Technologies, 05850) at 37° C. with 5% CO2. Cells were manually passaged at 1:4 to 1:6 split ratios every 3 to 5 days. For hepatic differentiation, we established a serum-free protocol based on previously described protocols with minor modifications^8, 9. Briefly, H1 cells were cultured for 3 days in RPMI/B27 medium (Insulin minus, Gibco, A18956-01) supplemented with 100 ng/ml Activin A (Peprotech, A120-14E), followed by 4 days with 20 ng/ml BMP2 (Peprotech, 120-02) and 30 ng/ml FGF-4 (Peprotech, 100-31) in RPMI/B27 (complete with Insulin, Gibco, 17504-044) medium, then 6 days with 20 ng/ml HGF (Peprotech, 100-39) and KGF (Peprotech, 100-19) in RPMI/B27 (complete with Insulin), then 8 days with 20 ng/ml Oncostatin-M (R&D Systems, 295-OM/CF) in Hepatocyte Culture Media (Lonza, cc-3198) supplemented with SingleQuots (without EGF). Immunofluorescence staining.
Single cell qPCR was performed using a Fluidigm C1 and BioMark HD as described by the manufacturer. Briefly, a cell suspension of a concentration of 166˜250 K/mL was loaded into a 10-17 μm C1™ Single-Cell Auto Prep IFC chamber (Fluidigm, PN100-5479), and cell capture was performed on the Fluidigm C1™ System. Both the empty wells and doublet-occupied wells were excluded from further analysis. Upon capture, reverse transcription and cDNA pre-amplification were performed using the Ambion Single Cell-to-CT Kit (Life Technologies, PN 4458237) and C1™ Single-Cell Auto Prep Module 2 Kit (Fluidigm, PN100-5519). The pre-amplified products were diluted 10-fold prior to analysis with TaqMan® Gene Expression Master Mix (Life Technologies, 4369016) and inventoried TaqMan® Gene Expression assays (20×, Applied Biosystems) in 96.96 dynamic Arrays™ on a BioMark System (Fluidigm). Inventoried TaqMan primers were used for single-cell qPCR. Relative expression was calculated as described in Buganim et al., 2012^22 except that a Ct value of 25 was used for low expressed genes. Relational network plots (mdsquish) were implemented as part of glbase^21 and will be described in detail elsewhere. Briefly, the normalized Euclidean distance between all cells was measured for singular value decomposed principal components 2, 3, 4 and 5. A network was then constructed using a threshold of 0.92 for weak links (dotted lines) and 0.99 for strong links (solid lines) with a maximum of the 50 best scoring edges per node, the network was then laid out using graphviz ‘neato’ layout. Node sizes are 2^[relative expression].
Culturing condition during differentiation is as follows. Nearly 50% confluent undifferentiated human H1 ES cells obtained from ATCC were passaged by Accutase 24 hr after seeding, cells were almost 90% confluent at 37° C. with 5% CO2. Then H1 cells were cultured for 3 days in RPMI/B27 medium (Insulin minus) supplemented with 100 ng/ml Activin A in the presence of 2 μM Repsox or not.
TGFβ-signaling inhibitor RepSox was added with a final concentration of 2 μM at day 0 from the start of differentiation of hESCs.
Expression of various markers of definite layer type cells, i.e., SOX1/PAX6 (ectoderm markers), GATA2/BMP4 (mesoderm markers), and SOX17/FOXA2 (endoderm markers) were tested during differentiation to evaluate the differentiated cells.

H1-derived cells = conditions: day 3 cells induced by Activin A in the presence of RepSox, compared to DE cells
Source text: Scratch assay was used to determine the migration activity of H1-derived cells. Briefly, cells in a confluent monolayer were scratched with a needle to form a cell-free zone into which cells at the edges of the wound can migrate. The denuded area was imaged to measure the boundary of the wound at pre-migration. Images of cell movement were captured at regular intervals within a 24-48 hr period for data analysis.

human H1 ES cells [2] = experiment: Bulk real-time qRT-PCR of marker genes in Activin A induced hESCs; type: cell-based
Description: Immunofluorescence staining.
Total RNA was extracted using the Trizol reagent (MRC, TR1187) and 2 μg of total RNA was reverse-transcribed using the ReverTraAce Kit (TOYOBO, 34520B1). The product (cDNA) was properly diluted and used as PCR template. PCR reactions were performed with the SYBR®Premix Ex Taq™ Kit (TAKARA, RR420A) on the CFX96 Touch™ Real-Time PCR Detection System (Bio-Rad). GAPDH was used as the internal control. Three to four biological replicates were performed for each assay and data represents mean±SD.
Culturing condition during differentiation is as follows.

TGFβ = experiment: ELISA of TGFβ protein in Activin A stimulated H1 cell culture media; type: cell-based, human; conditions: day 3 cells, Activin A (FIG. 4A)
Description: The protein level of TGFβ in the Activin A stimulated H1 cell culture media was determined with an ELISA Kit (R&D Systems, DB100B) as described by the manufacturer.

Molecule	endoderm marker expression (human H1 ES cells [1]; Example 1: 100 ng/ml Activin A, 2 μM RepSox, 3 days (FIG. 4B-E))	ectodermal markers SOX1 and PAX6 (human H1 ES cells [1]; RepSox treated cells, day 3 (FIG. 4C))	EMT and formation of DE (human H1 ES cells [1]; day 3, Activin A treated hESCs, RepSox added, single cell-qPCR (FIG. 4C))	expression of POU5F1 and NANOG (human H1 ES cells [1]; day 3 Activin A cells treated with RepSox (FIG. 4C))	expression of CDH1 and SOX2 (human H1 ES cells [1]; day 3 Activin A cells treated with RepSox, compared with hESCs (FIG. 4C))	induction of SOX17 expression (human H1 ES cells [1]; day 3 Activin A-treated cells (FIG. 4C))	migration ability of day 3 cells (H1-derived cells)	expression of CDH1 (human H1 ES cells [2]; qRT-PCR (FIG. 4D))	expression of CDH2, SNAI1, SNAI2, ZEB1, KLF8 and VIM (human H1 ES cells [2]; qRT-PCR (FIG. 4D))	expression of mesendoderm/endoderm markers GSC, EOMES, MIXL1, SOX17, FOXA2, GATA4, GATA6, HHEX and LGR5 (human H1 ES cells [2]; qRT-PCR (FIG. 4D))	other lineage markers PAX6, GATA2, BMP4 and GATA3 (human H1 ES cells [2]; qRT-PCR (FIG. 4D))	TGFβ protein in the culture media (TGFβ)	TGFB1 gene expression (human H1 ES cells [2]; qRT-PCR, day 3 (FIG. 6))
Cc1cccc(-c2[nH]ncc2-c2ccc3ncccc3n2)n1 [RepSox]	no endoderm marker is expressed	slightly induced	not only blocked the EMT but also the formation of DE	continued to express POU5F1 and NANOG	maintained the expression of CDH1 and SOX2 at the same level as hESCs	blocked its induction completely	less motile	maintaining the expression of CDH1	blocked the expression	blocked the expression of mesendoderm/endoderm markers	mildly up-regulated		
Activin A (protein, UniProt P08476 311-426, looked up, Inhibin beta A chain, growth factor (Peprotech) used to induce definitive endoderm differentiation of hESCs) Inhibin beta A chain: GLECDGKVNICCKKQFFVSFKDIGWNDWIIAPSGYHANYCEGECPSHIAGTSGSSLSFHSTVINHYRMRGHSPFANLKSCCVPTKLRPMSMLYYDDGQNIIKKDIQNMIVEECGCS												1.5 ng/mL	robust activation
